Experiment [1] has as its target PI3K-δ (PI3K(p1108/p857) (h)) (Homo sapiens, UniProt O00329). Kind of experiment: Evaluation of inhibitory activity against PI3K-δ (HTRF kinase assay). The format is biochemical. The note with it: for inhibition at 0.01 µM: compound concentration 0.01 μM, read-out: EXP_VALUE(% Inhibition) PI3K-δ 0.01 μM; for inhibition at 0.1 µM: compound concentration 0.1 μM, read-out: EXP_VALUE(% Inhibition) PI3K-δ 0.1 μM. The protocol:
<Experimental Example 1> Evaluation of Inhibitory Activity Properties Against PI3K-δ
The following experiments were performed to verify the inhibitory activity against PI3K-δ with regard to each of the compounds of Examples 1 to 441 according to the present invention.
PI3K(p1108/p857) (h) was incubated in assay buffer comprising 10 μM phosphatidylinositol-4,5-bisphosphate and Mg/ATP (at a concentration as required). The reaction was initiated by the addition of a Mg/ATP mixture, and after incubation for 30 minutes at room temperature, a stop solution comprising EDTA and phosphatidylinositol-3,4,5-triphosphate was added to stop the reaction and carry out biotinylation.
A detection buffer comprising Eu (europium)-labelled anti-GST monoclonal antibody, GST-tagged GRP1 PH domain and streptavidin-allophycocyanin was added. A plate was read in a time-resolved fluorescence mode and a homogeneous time-resolved fluorescence (HTRF) signal was determined according to HTRF=10000×(Em 665 nm/Em 620 nm).

The target in experiment [2] is DNA-PK(h) (Homo sapiens, UniProt P78527). In words: Evaluation of inhibitory activity against DNA-PK (HTRF kinase assay, GST-cMyc-p53 substrate). The note with it: for inhibition at 0.01 µM: compound concentration 0.01 μM, read-out: EXP_VALUE(% Inhibition) DNA-PK(h) 0.01 μM; for inhibition at 0.1 µM: compound concentration 0.1 μM, read-out: EXP_VALUE(% Inhibition) DNA-PK(h) 0.1 μM. The format is biochemical. The protocol: <Experimental Example 2> Evaluation of Inhibitory Activity Properties Against DNA-PK
The following experiments were performed to verify the inhibitory activity against DNA-PK with regard to each of the compounds of Examples 1 to 441 according to the present invention.
DNA-PK(h) was subjected to an isothermal treatment in an assay buffer comprising […] GST-cMyc-p53 and Mg/ATP (at a concentration as required). The reaction was initiated by the addition of a Mg/ATP mixture, and after incubation for 30 minutes at room temperature, a stop solution comprising EDTA was added to stop the reaction. A detection buffer comprising d2-labelled anti-GST monoclonal antibody and Europium-labelled anti-phospho Ser15 antibody for phosphorylated p53 was added. A plate was read in a time-resolved fluorescence mode and a homogeneous time-resolved fluorescence (HTRF) signal was determined according to HTRF=10000×(Em 665 nm/Em 620 nm).

The structures appear in SMILES notation.

PI3K-δ (PI3K(p1108/p857) (h)), sequence (O00329 whole entry): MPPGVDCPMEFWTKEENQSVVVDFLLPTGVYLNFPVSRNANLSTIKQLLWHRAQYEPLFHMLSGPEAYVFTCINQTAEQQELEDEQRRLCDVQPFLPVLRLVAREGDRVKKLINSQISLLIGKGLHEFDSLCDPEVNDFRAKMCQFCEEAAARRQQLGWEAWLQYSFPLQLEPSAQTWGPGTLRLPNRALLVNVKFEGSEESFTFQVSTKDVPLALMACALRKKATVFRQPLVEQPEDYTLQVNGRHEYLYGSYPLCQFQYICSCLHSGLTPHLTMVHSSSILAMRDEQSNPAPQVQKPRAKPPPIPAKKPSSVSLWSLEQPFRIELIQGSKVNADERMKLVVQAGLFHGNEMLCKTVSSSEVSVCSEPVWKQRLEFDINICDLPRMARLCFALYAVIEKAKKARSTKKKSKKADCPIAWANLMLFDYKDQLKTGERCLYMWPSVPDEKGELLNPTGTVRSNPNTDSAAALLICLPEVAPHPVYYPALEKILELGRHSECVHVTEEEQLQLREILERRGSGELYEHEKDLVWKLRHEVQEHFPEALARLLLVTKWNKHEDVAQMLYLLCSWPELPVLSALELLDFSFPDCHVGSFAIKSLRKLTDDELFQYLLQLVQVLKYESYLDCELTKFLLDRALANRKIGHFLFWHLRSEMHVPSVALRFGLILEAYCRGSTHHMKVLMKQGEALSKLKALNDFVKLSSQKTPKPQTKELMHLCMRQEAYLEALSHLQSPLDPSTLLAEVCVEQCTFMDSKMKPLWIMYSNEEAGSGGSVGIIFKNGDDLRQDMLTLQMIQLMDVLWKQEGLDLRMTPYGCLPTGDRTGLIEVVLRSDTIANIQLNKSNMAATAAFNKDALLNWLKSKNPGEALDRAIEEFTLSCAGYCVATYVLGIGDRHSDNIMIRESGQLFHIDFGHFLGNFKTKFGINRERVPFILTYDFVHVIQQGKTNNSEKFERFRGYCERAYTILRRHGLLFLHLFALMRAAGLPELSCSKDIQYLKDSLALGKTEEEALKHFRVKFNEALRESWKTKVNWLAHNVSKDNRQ
PI3K-δ (PI3K(p1108/p857) (h)), sequence (P27986 whole entry partner): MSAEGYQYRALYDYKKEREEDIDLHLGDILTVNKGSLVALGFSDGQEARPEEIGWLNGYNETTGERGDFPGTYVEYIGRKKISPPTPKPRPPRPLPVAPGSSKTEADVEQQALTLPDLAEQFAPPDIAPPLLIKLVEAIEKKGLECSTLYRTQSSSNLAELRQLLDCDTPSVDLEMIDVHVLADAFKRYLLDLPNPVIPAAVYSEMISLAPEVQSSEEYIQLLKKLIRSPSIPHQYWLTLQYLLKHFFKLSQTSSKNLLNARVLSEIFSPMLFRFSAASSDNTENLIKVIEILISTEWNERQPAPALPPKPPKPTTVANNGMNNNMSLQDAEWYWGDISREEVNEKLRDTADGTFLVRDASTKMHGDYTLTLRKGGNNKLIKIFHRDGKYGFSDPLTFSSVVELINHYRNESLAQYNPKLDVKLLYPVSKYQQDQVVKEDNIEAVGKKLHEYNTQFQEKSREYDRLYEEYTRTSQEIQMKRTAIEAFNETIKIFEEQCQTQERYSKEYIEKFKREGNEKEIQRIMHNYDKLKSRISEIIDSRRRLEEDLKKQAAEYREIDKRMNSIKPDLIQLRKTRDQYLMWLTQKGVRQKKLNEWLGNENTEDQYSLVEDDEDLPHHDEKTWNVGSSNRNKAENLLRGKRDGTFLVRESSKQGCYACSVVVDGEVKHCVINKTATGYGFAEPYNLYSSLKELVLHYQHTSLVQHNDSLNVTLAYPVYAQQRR

For orientation: inhibition means the relative decrease from the control value, in per cent. Consider `CON=C(C)c1cccc2c(Cl)c([C@H](C)Nc3ncnc4[nH]ccc(=O)c34)n(-c3ccccc3)c(=O)c12` (stereo in doubt) [Example 270, (S,Z)-4-((1-(4-chloro-8-(1-(methoxyimino)ethyl)-1-oxo-2-phenyl-1,2-dihydroisoquinolin-3-yl)ethyl)amino)pyrido[2,3-d]pyrimidin-5(8H)-one], for which the inhibition at 0.01 µM in experiment [1] was determined as 63%; in experiment [2], 60%.
Regarding `C[C@H](Nc1ncnc2[nH]ccc(=O)c12)c1c(Br)c2cccc(Cl)c2c(=O)n1-c1ccccc1` [Example 1, (S)-4-((1-(4-bromo-8-chloro-1-oxo-2-phenyl-1,2-dihydroisoquinolin-3-yl)ethyl)amino)pyrido[2,3-d]pyrimidin-5(8H)-one], in experiment [1], the inhibition at 0.01 µM came out at 105% and the inhibition at 0.1 µM was determined as 104%. Besides, in experiment [2], the inhibition at 0.01 µM amounted to 52% and the inhibition at 0.1 µM turned out to be 91%.
For `C[C@H](Nc1ncnc2[nH]ccc(=O)c12)c1c(Cl)c2cccc(B3OC(C)(C)C(C)(C)O3)c2c(=O)n1-c1ccccc1` [Example 2, (S)-4-((1-(4-chloro-1-oxo-2-phenyl-8-(4,4,5,5-tetramethyl-1,3,2-dioxaborolan-2-yl)-1,2-dihydroisoquinolin-3-yl)ethyl)amino)pyrido[2,3-d]pyrimidin-5(8H)-one], in that order: 42%, 94%, 56% and 89%.
Take `C[C@H](Nc1ncnc2[nH]ccc(=O)c12)c1c(Cl)c2cccc(-c3ccc(-n4cccc4)nc3)c2c(=O)n1-c1ccccc1` [Example 3, (S)-4-((1-(8-(6-(1H-pyrrol-1-yl)pyridin-3-yl)-4-chloro-1-oxo-2-phenyl-1,2-dihydroisoquinolin-3-yl)ethyl)amino)pyrido[2,3-d]pyrimidin-5(8H)-one]: the figures for the inhibition at 0.01 µM in experiment [1] and in experiment [2] were 69% and 44%, respectively.
On to `C[C@H](Nc1ncnc2[nH]ccc(=O)c12)c1c(Cl)c2cccc(-c3cccnc3)c2c(=O)n1-c1ccccc1` [Example 4, (S)-4-((1-(4-chloro-1-oxo-2-phenyl-8-(pyridin-3-yl)-1,2-dihydroisoquinolin-3-yl)ethyl)amino)pyrido[2,3-d]pyrimidin-5(8H)-one], for which the inhibition at 0.01 µM came to 101% in experiment [1] and 53% in experiment [2]. Further, the inhibition at 0.1 µM in experiment [1] stood at 109%; in experiment [2], 99%.
For `C[C@H](Nc1ncnc2[nH]ccc(=O)c12)c1c(Cl)c2cccc(-c3cnn(C)c3)c2c(=O)n1-c1ccccc1` [Example 5, (S)-4-((1-(4-chloro-8-(1-methyl-1H-pyrazol-4-yl)-1-oxo-2-phenyl-1,2-dihydroisoquinolin-3-yl)ethyl)amino)pyrido[2,3-d]pyrimidin-5(8H)-one], in that order: 106%, 69%, 115% and 100%.
The corresponding values for `C[C@H](Nc1ncnc2[nH]ccc(=O)c12)c1c(Cl)c2cccc(-c3cc4ccccc4o3)c2c(=O)n1-c1ccccc1` [Example 6, (S)-4-((1-(8-(benzofuran-2-yl)-4-chloro-1-oxo-2-phenyl-1,2-dihydroisoquinolin-3-yl)ethyl)amino)pyrido[2,3-d]pyrimidin-5(8H)-one] are 74%, 25%, 95% and 74%.
For `C[C@H](Nc1ncnc2[nH]ccc(=O)c12)c1c(Cl)c2cccc(N3CCc4ccccc4C3)c2c(=O)n1-c1ccccc1` [Example 7, (S)-4′-chloro-3′-(1-((5-oxo-5,8-dihydropyrido[2,3-d]pyrimidin-4-yl)amino)ethyl)-2′-phenyl-3,4-dihydro-1H-(2,8′-biisoquinolin)-1′(2′H)-one], in that order: 77%, 26%, 108% and 62%.
With `C[C@H](Nc1ncnc2[nH]ccc(=O)c12)c1c(Cl)c2cccc(N3CC4CC=CCC4C3)c2c(=O)n1-c1ccccc1` (stereo partly drawn) [Example 8, 4-(((1S)-1-(4-chloro-1-oxo-2-phenyl-8-(3a, 4,7,7a-tetrahydro-1H-isoindol-2 (3H)-yl)-1,2-dihydroisoquinolin-3-yl)ethyl)amino)pyrido[2,3-d]pyrimidin-5(8H)-one], in experiment [1], the inhibition at 0.01 µM is 36% and the inhibition at 0.1 µM worked out at 76%. Further, in experiment [2], the inhibition at 0.01 µM is 12% and the inhibition at 0.1 µM is 28%.
For `C[C@H](Nc1ncnc2[nH]ccc(=O)c12)c1c(Cl)c2cccc(N3CCN(c4ccncc4)CC3)c2c(=O)n1-c1ccccc1` [Example 9, (S)-4-((1-(4-chloro-1-oxo-2-phenyl-8-(4-(pyridin-4-yl)piperazin-1-yl)-1,2-dihydroisoquinolin-3-yl)ethyl)amino)pyrido[2,3-d]pyrimidin-5(8H)-one], in that order: 50%, 61%, 60% and 92%.
In the case of `C[C@H](Nc1ncnc2[nH]ccc(=O)c12)c1c(Cl)c2cccc(N3CCC(N4CCCCC4)CC3)c2c(=O)n1-c1ccccc1` [Example 10, (S)-4-((1-(8-([1,4′-bipiperidin]-1′-yl)-4-chloro-1-oxo-2-phenyl-1,2-dihydroisoquinolin-3-yl)ethyl)amino)pyrido[2,3-d]pyrimidin-5(8H)-one], the inhibition at 0.01 µM in experiment [1] amounted to 40%; in experiment [2] it was 15%. Further, the inhibition at 0.1 µM turned out to be 70% in experiment [1] and 73% in experiment [2].
The corresponding values for `C[C@H](Nc1ncnc2[nH]ccc(=O)c12)c1c(Cl)c2cccc(N3CCN(C4CCN(C)CC4)CC3)c2c(=O)n1-c1ccccc1` [Example 11, (S)-4-((1-(4-chloro-8-(4-(1-methylpiperidin-4-yl)piperazin-1-yl)-1-oxo-2-phenyl-1,2-dihydroisoquinolin-3-yl)ethyl)amino)pyrido[2,3-d]pyrimidin-5(8H)-one] are 21%, 18%, 61% and 53%.
For `C[C@H](Nc1ncnc2[nH]ccc(=O)c12)c1cc2cccc(-c3cccnc3)c2c(=O)n1-c1ccccc1` [Example 12, (S)-4-((1-(1-oxo-2-phenyl-8-(pyridin-3-yl)-1,2-dihydroisoquinolin-3-yl)ethyl)amino)pyrido[2,3-d]pyrimidin-5(8H)-one], in that order: 102%, 6%, 114% and 21%.
The corresponding values for `Cc1ccc(-c2cccc3cc([C@H](C)Nc4ncnc5[nH]ccc(=O)c45)n(-c4ccccc4)c(=O)c23)cn1` [Example 13, (S)-4-((1-(8-(6-methylpyridin-3-yl)-1-oxo-2-phenyl-1,2-dihydroisoquinolin-3-yl)ethyl)amino)pyrido[2,3-d]pyrimidin-5(8H)-one] are 35%, 3%, 101% and 18%.
Take `C[C@H](Nc1ncnc2[nH]ccc(=O)c12)c1cc2cccc(-c3ccc(F)cc3)c2c(=O)n1-c1ccccc1` [Example 14, (S)-4-((1-(8-(4-fluorophenyl)-1-oxo-2-phenyl-1,2-dihydroisoquinolin-3-yl)ethyl)amino)pyrido[2,3-d]pyrimidin-5(8H)-one]: the figures for the inhibition at 0.01 µM in experiment [1] and in experiment [2] were 105% and 8%, respectively. Also, the inhibition at 0.1 µM was determined as 107% in experiment [1] and 27% in experiment [2].
For `C[C@H](Nc1ncnc2[nH]ccc(=O)c12)c1cc2cccc(-c3cnn(C)c3)c2c(=O)n1-c1ccccc1` [Example 15, (S)-4-((1-(8-(1-methyl-1H-pyrazol-4-yl)-1-oxo-2-phenyl-1,2-dihydroisoquinolin-3-yl)ethyl)amino)pyrido[2,3-d]pyrimidin-5(8H)-one], in that order: 109%, 24%, 108% and 37%.
Consider `C[C@H](Nc1ncnc2[nH]ccc(=O)c12)c1c(Cl)c2cccc(-c3ccc(C(F)(F)F)cc3)c2c(=O)n1-c1ccccc1` [Example 68, (S)-4-((1-(4-chloro-1-oxo-2-phenyl-8-(4-(trifluoromethyl)phenyl)-1,2-dihydroisoquinolin-3-yl)ethyl)amino)pyrido[2,3-d]pyrimidin-5(8H)-one], for which, in experiment [2], the inhibition at 0.01 µM amounted to 48% and the inhibition at 0.1 µM was 73%.

These data come from patent US20230072683A1, “PYRIDO-PYRIMIDIN DERIVATIVES AND PHARMACEUTICAL COMPOSITION, FOR USE IN PREVENTING OR TREATING PI3 KINASE RELATED DISEASES, COMPRISING SAME AS ACTIVE INGREDIENT” (BORYUNG PHARMACEUTICAL CO., LTD, priority 2019, published 2023).
